# Laboratory results reported in US9598423B2 (BRISTOL-MYERS SQUIBB COMPANY, priority 2013, dated 2017).
# How the values were obtained:
# CK1δ = CK1δ (Homo sapiens (Human), UniProt P48730); experiment: CK1δ kinase assay (Caliper LABCHIP electrophoretic separation of fluoresceinated peptide substrate and product); type: biochemical; conditions: 200 pM CK1δ, 50 μM ATP, 1.5 μM peptide substrate, 22 hours at room temperature; read-out: CK1δ (IC50)
# Procedure: (§1) CK1ε and CK1δ Kinase Assays
# (§2) The kinase assay was performed in V-bottom 384-well plates. […] The reaction was incubated at room temperature for 22 hours and terminated by adding 45 μl of 35 mM EDTA to each sample. The reaction mixture was analyzed on the Caliper LABCHIP®3000 (Caliper, Hopkinton, Mass.) by electrophoretic separation of the unphosphorylated substrate and phosphorylated product. […] Compounds were dissolved at 10 mM in dimethylsulfoxide (DMSO) and evaluated at eleven concentrations. IC50 values were derived by non-linear regression analysis.
# CK1ε = CK1ε (Homo sapiens (Human), UniProt P49674); experiment: CK1ε kinase assay (Caliper LABCHIP electrophoretic separation of fluoresceinated peptide substrate and product); type: biochemical; conditions: 200 pM CK1ε, 50 μM ATP, 1.5 μM peptide substrate, 22 hours at room temperature; read-out: CK1ε (IC50)
# Procedure: as §1, §2
# Chain of CK1δ (P48730 whole entry): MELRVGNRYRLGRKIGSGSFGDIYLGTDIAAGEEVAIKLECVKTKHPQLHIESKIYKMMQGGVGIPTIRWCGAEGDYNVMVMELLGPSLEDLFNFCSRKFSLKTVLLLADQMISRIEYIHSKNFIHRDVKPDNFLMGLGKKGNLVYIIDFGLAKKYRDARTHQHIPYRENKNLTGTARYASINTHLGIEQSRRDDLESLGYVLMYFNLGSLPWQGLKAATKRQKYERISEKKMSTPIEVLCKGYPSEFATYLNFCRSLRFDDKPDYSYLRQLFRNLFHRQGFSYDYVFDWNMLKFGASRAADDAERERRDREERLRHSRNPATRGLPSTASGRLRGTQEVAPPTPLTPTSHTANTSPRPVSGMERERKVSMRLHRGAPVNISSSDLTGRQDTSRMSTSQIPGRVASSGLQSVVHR
# Chain of CK1ε (P49674 whole entry): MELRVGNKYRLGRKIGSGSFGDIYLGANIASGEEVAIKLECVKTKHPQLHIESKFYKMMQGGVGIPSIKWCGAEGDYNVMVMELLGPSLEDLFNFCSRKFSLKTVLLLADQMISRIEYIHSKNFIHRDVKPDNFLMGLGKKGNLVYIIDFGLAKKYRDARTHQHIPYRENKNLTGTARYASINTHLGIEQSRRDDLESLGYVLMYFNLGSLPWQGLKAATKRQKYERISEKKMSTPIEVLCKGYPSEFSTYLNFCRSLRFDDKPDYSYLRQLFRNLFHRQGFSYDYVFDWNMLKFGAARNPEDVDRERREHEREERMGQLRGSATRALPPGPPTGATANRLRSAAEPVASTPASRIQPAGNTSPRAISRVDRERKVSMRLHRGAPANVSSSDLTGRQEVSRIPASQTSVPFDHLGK
IC50 (CK1δ) [nM],IC50 (CK1ε) [nM],Compound
0.01 to 10,0.01 to 10,"N#Cc1ccc(NC(=O)N2CCn3nc(-c4ccc(F)c(Cl)c4)c(C(N)=O)c3C2)cc1C1CC1 [Compound A50, 2-(3-Chloro-4-fluorophenyl)-N^5-(4-cyano-3-cyclopropylphenyl)-6,7-dihydropyrazolo[1,5-a]pyrazine-3,5(4H)-dicarboxamide]"
0.01 to 10,0.01 to 10,"NC(=O)c1c(-c2cccc(Cl)c2)nn2c1CN(C(=O)Nc1ccc(N3CCCCC3)cc1)C[C@@H]2CF [Compound A11, (R)-2-(3-Chlorophenyl)-7-(fluoromethyl)-N^5-(4-(piperidin-1-yl)phenyl)-6,7-dihydropyrazolo[1,5-a]pyrazine-3,5(4H)-dicarboxamide]"
0.01 to 10,0.01 to 10,"Cc1cc(Cl)cc(-c2nn3c(c2C(N)=O)CN(C(=O)Nc2ccc(C#N)cc2)CC3)c1 [Compound A62, 2-(3-Chloro-5-methylphenyl)-N^5-(4-cyanophenyl)-6,7-dihydropyrazolo[1,5-a]pyrazine-3,5(4H)-dicarboxamide]"
100 to 2000,100 to 2000,"CNC(=O)c1c(-c2ccc(F)c(Cl)c2)nn2c1CN(C(=O)Nc1ccc(C#N)cc1)CC2 [Compound A64, 2-(3-Chloro-4-fluorophenyl)-N^5-(4-cyanophenyl)-N3-methyl-6,7-dihydropyrazolo[1,5-a]pyrazine-3,5(4H)-dicarboxamide]"
0.01 to 10,0.01 to 10,"CN(C)c1cc(Cl)cc(-c2nn3c(c2C(N)=O)CN(C(=O)Nc2ccc(C#N)c(C(F)(F)F)c2)CC3)c1 [Compound 266, 2-(3-Chloro-5-(dimethylamino)phenyl)-N^5-(4-cyano-3-(trifluoromethyl)phenyl)-6,7-dihydropyrazolo[1,5-a]pyrazine-3,5(H)-dicarboxamide]"
0.01 to 10,0.01 to 10,"Cc1cc(Cl)cc(-c2nn3c(c2C(N)=O)CN(C(=O)Nc2ccc(C#N)c(Cl)c2)CC3)c1 [Compound A63, N^5-(3-Chloro-4-cyanophenyl)-2-(3-chloro-5-methylphenyl)-6,7-dihydropyrazolo[1,5-a]pyrazine-3,5(4H)-dicarboxamide]"
0.01 to 10,0.01 to 10,"COc1ccc(NC(=O)N2CCn3nc(-c4cccc(F)c4)c(C(N)=O)c3C2)cc1Cl [Compound 67, N^5-(3-Chloro-4-methoxyphenyl)-2-(3-fluorophenyl)-6,7-dihydropyrazolo[1,5-a]pyrazine-3,5(4H)-dicarboxamide]"
0.01 to 10,0.01 to 10,"NC(=O)c1c(-c2ccc(F)c(Cl)c2)nn2c1CN(C(=O)Nc1ccc(F)c(C(F)(F)F)c1)CC2 [Compound 190, 2-(3-Chloro-4-fluorophenyl)-N^5-(4-fluoro-3-(trifluoromethyl)phenyl)-6,7-dihydropyrazolo[1,5-a] pyrazine-3,5(4H)-dicarboxamide]"
0.01 to 10,0.01 to 10,"Cc1cc(F)cc(-c2nn3c(c2C(N)=O)CN(C(=O)Nc2ccc(C#N)c(F)c2)CC3)c1 [Compound 224, N^5-(4-Cyano-3-fluorophenyl)-2-(3-fluoro-5-methylphenyl)-6,7-dihydropyrazolo[1,5-a] pyrazine-3,5(4H)-dicarboxamide]"
10 to 100,0.01 to 10,"N#Cc1ccc(NC(=O)N2CCn3nc(-c4ccc5c(c4)OCO5)c(C(N)=O)c3C2)cc1 [Compound 277, 2-(Benzo[d][1,3]dioxol-5-yl)-N^5-(4-cyanophenyl)-6,7-dihydropyrazolo[1,5-a] pyrazine-3,5(4H)-dicarboxamide]"
0.01 to 10,–,"NC(=O)c1c(-c2cccc(F)c2)nn2c1CN(C(=O)Nc1cccnc1)CC2 [Compound 68, 2-(3-Fluorophenyl)-N^5-(pyridin-3-yl)-6,7-dihydropyrazolo[1,5-a]pyrazine-3,5(4H)-dicarboxamide]"
0.01 to 10,–,"NC(=O)c1c(-c2cccc(F)c2)nn2c1CN(C(=O)Nc1cc(Cl)ccc1F)CC2 [Compound 33, N^5-(5-Chloro-2-fluorophenyl)-2-(3-fluorophenyl)-6,7-dihydropyrazolo[1,5-a]pyrazine-3,5(4H)-dicarboxamide]"
0.01 to 10,–,"CC(C)(NC(=O)N1CCn2nc(-c3cccc(F)c3)c(C(N)=O)c2C1)c1ccccc1 [Compound 25, 2-(3-Fluorophenyl)-N^5-(2-phenylpropan-2-yl)-6,7-dihydropyrazolo[1,5-a]pyrazine-3,5(4H)-dicarboxamide]"
0.01 to 10,–,"NC(=O)c1c(-c2cccc(F)c2)nn2c1CN(C(=O)Nc1cncnc1)CC2 [Compound 84, 2-(3-Fluorophenyl)-N^5-(pyrimidin-5-yl)-6,7-dihydropyrazolo[1,5-a]pyrazine-3,5(4H)-dicarboxamide]"
0.01 to 10,–,"N#Cc1ccc(NC(=O)N2Cc3c(C(N)=O)c(-c4ccc(F)c(Cl)c4)nn3[C@@H](C(F)F)C2)cc1F [Compound A23, (R)-2-(3-Chloro-4-fluorophenyl)-N^5-(4-cyano-3-fluorophenyl)-7-(difluoromethyl)-6,7-dihydropyrazolo[1,5-a]pyrazine-3,5(4H)-dicarboxamide]"
0.01 to 10,–,"CSc1cccc(-c2nn3c(c2C(N)=O)CN(C(=O)NC(C)(C)C)CC3)c1 [Compound 150, N^5-(tert-Butyl)-2-(3-(methylthio)phenyl)-6,7-dihydropyrazolo[1,5-a]pyrazine-3,5(4H)-dicarboxamide]"
0.01 to 10,–,"NC(=O)c1c(-c2cccc(F)c2)nn2c1CN(C(=O)NC1CCN(S(=O)(=O)C3CC3)CC1)CC2 [Compound 102, N^5-(1-(Cyclopropylsulfonyl)piperidin-4-yl)-2-(3-fluorophenyl)-6,7-dihydropyrazolo[1,5-a]pyrazine-3,5(4H)-dicarboxamide]"
0.01 to 10,–,"COc1ccc(NC(=O)N2CCn3nc(-c4cccc(F)c4)c(C(N)=O)c3C2)cc1OC [Compound 66, N^5-(3,4-Dimethoxyphenyl)-2-(3-fluorophenyl)-6,7-dihydropyrazolo[1,5-a]pyrazine-3,5(4H)-dicarboxamide]"
0.01 to 10,–,"Cc1ccc(NC(=O)N2CCn3nc(-c4cccc(F)c4)c(C(N)=O)c3C2)cn1 [Compound 86, 2-(3-Fluorophenyl)-N^5-(6-methylpyridin-3-yl)-6,7-dihydropyrazolo[1,5-a]pyrazine-3,5(4H)-dicarboxamide]"
0.01 to 10,–,"CC(C)(C)NC(=O)N1CCn2nc(-c3cc(F)cc(F)c3)c(C(N)=O)c2C1 [Compound 105, N^5-(tert-Butyl)-2-(3,5-difluorophenyl)-6,7-dihydropyrazolo[1,5-a]pyrazine-3,5(4H)-dicarboxamide]"
0.01 to 10,–,"NC(=O)c1c(-c2cccc(F)c2)nn2c1CN(C(=O)Nc1ccc(F)nc1)CC2 [Compound 87, 2-(3-Fluorophenyl)-N^5-(6-fluoropyridin-3-yl)-6,7-dihydropyrazolo[1,5-a]pyrazine-3,5(4H)-dicarboxamide]"
0.01 to 10,–,"NC(=O)c1c(-c2ccc(F)cc2)nn2c1CN(C(=O)NC1CCCCC1)CC2 [Compound 3, N^5-Cyclohexyl-2-(4-fluorophenyl)-6,7-dihydropyrazolo[1,5-a]pyrazine-3,5(4H)-dicarboxamide]"
0.01 to 10,–,CC(=O)N1CCC(NC(=O)N2CCn3nc(-c4cccc(F)c4)c(C(N)=O)c3C2)CC1 [Compound 97]
0.01 to 10,–,"NC(=O)c1c(-c2cccc(F)c2)nn2c1CN(C(=O)Nc1ccc(F)c(F)c1)CC2 [Compound 29, N^5-(3,4-Difluorophenyl)-2-(3-fluorophenyl)-6,7-dihydropyrazolo[1,5-a]pyrazine-3,5(4H)-dicarboxamide]"
0.01 to 10,–,"CC(C)(NC(=O)N1CCn2nc(-c3cccc(F)c3)c(C(N)=O)c2C1)c1ccc(F)cc1 [Compound 17, 2-(3-Fluorophenyl)-N^5-(2-(4-fluorophenyl)propan-2-yl)-6,7-dihydropyrazolo[1,5-a]pyrazine-3,5(4H)-dicarboxamide]"
0.01 to 10,–,"NC(=O)c1c(-c2cccc(F)c2)nn2c1CN(C(=O)Nc1ccnc(Cl)c1)CC2 [Compound 90, N^5-(2-Chloropyridin-4-yl)-2-(3-fluorophenyl)-6,7-dihydropyrazolo[1,5-a]pyrazine-3,5(4H)-dicarboxamide]"
–,0.01 to 10,"CN(C)c1cc(Cl)cc(-c2nn3c(c2C(N)=O)CN(C(=O)Nc2ccc(C#N)c(F)c2)CC3)c1 [Compound 269, 2-(3-Chloro-5-(dimethylamino)phenyl)-N^5-(4-cyano-3-fluorophenyl)-6,7-dihydropyrazolo[1,5-a] pyrazine-3,5(4H)-dicarboxamide]"
0.01 to 10,–,"NC(=O)c1c(-c2cccc(F)c2)nn2c1CN(C(=O)Nc1ccc(OC(F)F)cc1)CC2 [Compound 89, N^5-(4-(Difluoromethoxy)phenyl)-2-(3-fluorophenyl)-6,7-dihydropyrazolo[1,5-a]pyrazine-3,5(4H)-dicarboxamide]"
0.01 to 10,–,"COc1cc(F)cc(-c2nn3c(c2C(N)=O)CN(C(=O)NC(C)(C)C)CC3)c1 [Compound 137, N^5-(tert-Butyl)-2-(3-fiuoro-5-methoxyphenyl)-6,7-dihydropyrazolo[1,5-a]pyrazine-3,5(4H)-dicarboxamide]"

Compound,IC50 (CK1δ) [nM],IC50 (CK1ε) [nM]
Cc1n[nH]c2c(Cl)cc(-c3nn4c(c3C(N)=O)CN(C(=O)Nc3ccc(C#N)c(Cl)c3)CC4)cc12 [compound 321],0.01 to 10,0.01 to 10
"N#Cc1ccc(NC(=O)N2Cc3c(C(N)=O)c(-c4ccc(F)c(Cl)c4)nn3C(C(F)F)C2)cc1Cl (stereo not shown) [Compound A19, N^5-(3-Chloro-4-cyanophenyl)-2-(3-chloro-4-fluorophenyl)-7-(difluoromethyl)-6,7-dihydropyrazolo[1,5-a]pyrazine-3,5(4H)-dicarboxamide]",0.01 to 10,–
"N#Cc1ccc(NC(=O)N2Cc3c(C(N)=O)c(-c4ccc(F)c(Cl)c4)nn3[C@H](C(F)F)C2)cc1Cl [Compound A18, (S)—N^5-(3-Chloro-4-cyanophenyl)-2-(3-chloro-4-fluorophenyl)-7-(difluoromethyl)-6,7-dihydropyrazolo[1,5-a]pyrazine-3,5(4H)-dicarboxamide]",0.01 to 10,–
